From US5254801A, “Heterologous dominant conditional lethal gene which is a phosphonate monoester hydrolase and use thereof in plants” (Monsanto Company, priority 1990, dated 1993)
“Also recorded” adds a separate entry of the source.

Biological target: T1, phosphonate monoester hydrolase (PEH) (Trinickia caryophylli, UniProt Q45087)
T1 sequence (Q45087 1-514): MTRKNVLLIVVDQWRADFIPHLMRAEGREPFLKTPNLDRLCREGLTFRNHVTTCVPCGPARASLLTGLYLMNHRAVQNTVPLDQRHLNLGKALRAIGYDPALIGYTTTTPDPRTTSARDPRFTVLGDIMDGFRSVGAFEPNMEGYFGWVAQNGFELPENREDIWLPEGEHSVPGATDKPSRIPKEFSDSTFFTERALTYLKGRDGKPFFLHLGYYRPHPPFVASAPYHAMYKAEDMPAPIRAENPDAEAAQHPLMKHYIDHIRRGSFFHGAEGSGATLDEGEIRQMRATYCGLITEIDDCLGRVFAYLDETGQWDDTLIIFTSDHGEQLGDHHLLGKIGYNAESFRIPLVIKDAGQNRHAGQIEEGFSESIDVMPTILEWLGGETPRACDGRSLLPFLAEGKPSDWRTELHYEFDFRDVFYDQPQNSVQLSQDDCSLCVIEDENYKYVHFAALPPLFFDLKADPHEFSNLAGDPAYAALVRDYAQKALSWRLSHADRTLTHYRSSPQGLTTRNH
Test: Hydrolysis of protoxin to glyphosate by phosphonate monoester hydrolase
Format: biochemical, Pseudomonas caryophilli PG2982
Procedure: The critical tests for a prophytotoxin to be used in negative selection, cell ablation and as a gametocide are that the compound is non-phytotoxic per se but can be hydrolyzed into a phytotoxin by the phosphonate monoester hydrolase protein. The most general and specific method to determine if a protoxin is hydrolyzed to a toxic form of glyphosate is a HPLC assay. The compounds are dissolved at 100 mM concentration in a suitable buffer such as 10 mM TAPS, (N-Tris(hydroxymethyl)methyl-2-aminopropane sulfonic acid) pH 9.0. Triplicate samples (0.1 ml) of the compound are then diluted with 0.9 ml of 10 mM TAPS, pH 9.0 and with 0.9 ml 10 mM TAPS, pH 9.0 plus one unit (1 μmol/min) of enzyme. After 24 hour incubation at 25° C., the samples are injected onto a HPLC column for glyphosate analysis. […] The protoxin and glyphosate are separated on an anion exchange column. the glyphosate is oxidized as it elutes in the presence of bleach and is then derivatized by o-pthaldehyde to a fluorescent derivative which can be quantitatively measured by a fluorescence monitor. […] After two days, the plant is dissected into individual tissues and the amount of protoxin in each tissue determined. […] The tissue samples were then combusted and the amount of radiolabelled compound in each tissue determined by scintillation counting. […]

## O=C(O)CNCP(=O)(O)OCC(O)CO (stereo not shown) [glyceryl glyphosate, glycine, N-([hydroxy (2,3 dihydroxy propoxy)phosphonyl]methyl)]
  Substrate for / hydrolysis by phosphonate monoester hydrolase: is a substrate for the phosphonate monoester hydrolases; also recorded: hydrolyze the glyceryl glyphosate into glycerol and glyphosate
